These results are taken from article PMC5995969, “Structural basis for the regulation of human 5,10-methylenetetrahydrofolate reductase by phosphorylation and S-adenosylmethionine inhibition” (Nature Communications, 2018).

The target of one assay is T1, mouse MTHFR (Mus musculus, UniProt Q9WU20).
T1 sequence (Q9WU20 357-654): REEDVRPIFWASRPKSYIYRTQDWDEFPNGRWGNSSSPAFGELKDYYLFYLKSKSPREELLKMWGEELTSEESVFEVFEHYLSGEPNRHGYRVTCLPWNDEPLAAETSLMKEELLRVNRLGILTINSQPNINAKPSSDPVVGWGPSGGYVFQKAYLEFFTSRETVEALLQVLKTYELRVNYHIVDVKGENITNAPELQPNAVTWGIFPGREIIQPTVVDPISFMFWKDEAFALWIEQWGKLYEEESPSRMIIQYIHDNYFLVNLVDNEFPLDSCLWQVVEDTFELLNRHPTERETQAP
Nature of the assay: analytical size exclusion chromatography / DSF. It is filed as binding. Background: In gel filtration, larger molecules generally elute earlier.

In assay [1] the target is T2, 5,10-methylenetetrahydrofolate reductase (MTHFR) (Homo sapiens, UniProt P42898, A368L).
T2 construct: HsMTHFR348–656
T2 sequence (P42898 348-656 A368L): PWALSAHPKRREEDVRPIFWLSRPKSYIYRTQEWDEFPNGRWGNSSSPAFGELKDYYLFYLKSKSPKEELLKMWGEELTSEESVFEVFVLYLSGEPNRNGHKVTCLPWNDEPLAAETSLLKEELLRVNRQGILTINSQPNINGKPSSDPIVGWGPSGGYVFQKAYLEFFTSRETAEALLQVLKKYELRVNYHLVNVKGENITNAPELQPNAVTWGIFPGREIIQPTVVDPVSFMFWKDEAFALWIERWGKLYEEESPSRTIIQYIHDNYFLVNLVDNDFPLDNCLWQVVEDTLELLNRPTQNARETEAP
Kind of assay: differential scanning fluorimetry; aSEC. The format is binding.

For assay [2], the target named is T3, 5,10-methylenetetrahydrofolate reductase (MTHFR) (Homo sapiens, UniProt P42898).
T3 construct: HsMTHFR1–656 (phosphorylated, as purified)
Nature of the assay: HPLC-based enzyme activity assay; also native MS, DSF and aSEC. The format is biochemical. Particulars: read-out: Inhibition (μM) / SAM Ki (95% CI).

Turning to `Nc1ncnc2c1ncn2[C@@H]1O[C@H](CSCC[C@H](N)C(=O)O)[C@@H](O)[C@H]1O` [SAH, S-adenosylhomocysteine], on mouse MTHFR, the “analytical size exclusion chromatography / DSF” value is listed as “A similar pattern of results were observed when using purified recombinant mouse MTHFR of the same protein boundaries”.

`C[S+](CC[C@H](N)C(=O)[O-])C[C@H]1O[C@@H](n2cnc3c(N)ncnc32)[C@H](O)[C@@H]1O` (stereo partly shown) [SAM, S-adenosylmethionine]: the “differential scanning fluorimetry; aSEC” value in assay [1] is given as “p.A368L resulted in protein which retained the ability to bind SAM, but was less sensitive to change”. The Ki in assay [2] was determined as 2.7 µM. At mouse MTHFR, the “analytical size exclusion chromatography / DSF” value is reported as “A similar pattern of results were observed when using purified recombinant mouse MTHFR of the same protein boundaries”.
